# Assay results taken from patent US20070172957A1, “Methods of identifying anti-inflammatory macrolides” (TAISHO PHARMACEUTICAL CO., LTD., priority 2004, published 2007).
# System: genes predictive for the anti-inflammatory macrolide effect
# Assay: Genes statistically predictive of Clari response: differentially expressed with Clari but not the inactive macrolides MAA or Josa (Appendix E)
# Type: cell-based
# Excerpt: In the case of the above-mentioned (i) related to arachidonic acid biosynthesis, specifically, methods of the embodiment involve assaying whether a test macrolide alters biosynthesis of arachidonic acid, alters the expression or activities of enzymes involved in the biosynthesis or activation of arachidonic acid (e.g., arachidonic acid CoA synthetase, delta-6 desaturase, fatty acid elongase, and delta-5 desaturase, AA-related genes in Tables 2 and 3), or alters the expression of genes identified as predictive for the anti-inflammatory macrolide effect (Appendix E). Assays in which arachidonic acid or gene expression or enzymatic activity is detected can be carried out after contacting a cell with a test macrolide. Any cell line that secretes prostaglandin or produces arachidonic acid can be used. Epithelial and macrophages lines (e.g., A549 or THP-1) are suitable for this purpose; other cell lines can be identified by carrying out assays such as those described in the specific Examples, below. Alternatively, screening assays can be carried out after adding a test macrolide to an in vitro cell system (e.g., a cellular extract or liver microsome preparation) or an in vitro enzyme assay system.
compound,measurement,setting,value
CO[C@@H]1[C@@H](O[C@@H]2O[C@H](C)[C@@H](O[C@H]3C[C@@](C)(O)[C@@H](OC(=O)CC(C)C)[C@H](C)O3)[C@H](N(C)C)[C@H]2O)[C@@H](CC=O)C[C@@H](C)[C@@H](O)/C=C/C=C/C[C@@H](C)OC(=O)C[C@H]1OC(C)=O [josamycin],"group mean, gene UNG","SpotID 48807, MAA and Josa vs. Clari",1.03
same,"group mean, gene TUBB","SpotID 48914, MAA and Josa vs. Clari",0.96
same,"group mean, gene ITGAE","SpotID 48921, MAA and Josa vs. Clari",0.85
same,"mean group, ITGAE","SpotID 48921, pooled group mean",0.85
same,"group mean, gene P4HA2","SpotID 48971, MAA and Josa vs. Clari",1.07
same,"group mean, gene FADS1","SpotID 48998, MAA and Josa vs. Clari",1.02
same,"group mean, gene PRSS25","SpotID 49006, MAA and Josa vs. Clari",1.02
same,"mean group, PRSS25","SpotID 49006, pooled group mean",1.02
same,"group mean, gene TM9SF2","SpotID 49007, MAA and Josa vs. Clari",1.08
same,"mean group, TM9SF2","SpotID 49007, pooled group mean",1.08
same,"group mean, gene BBC3","SpotID 49013, MAA and Josa vs. Clari",0.93
same,"group mean, gene BNIP3L","SpotID 49028, MAA and Josa vs. Clari",1.03
same,"mean group, BNIP3L","SpotID 49028, pooled group mean",1.03
same,"group mean, gene GSK3B","SpotID 49032, MAA and Josa vs. Clari",1.06
same,"group mean, gene GLUD1","SpotID 49047, MAA and Josa vs. Clari",1.05
same,"group mean, gene SERPINB1","SpotID 49117, MAA and Josa vs. Clari",1.01
same,"mean group, SERPINB1","SpotID 49117, pooled group mean",1.01
same,"group mean, gene PPIB","SpotID 49142, MAA and Josa vs. Clari",1.03
same,"group mean, gene PIK3R3","SpotID 49144, MAA and Josa vs. Clari",1.01
same,"group mean, gene ARTS-1","SpotID 49155, MAA and Josa vs. Clari",1.11
same,"mean group, ARTS-1","SpotID 49155, pooled group mean",1.11
same,"group mean, gene LGALS3","SpotID 49163, MAA and Josa vs. Clari",1.06
same,"group mean, gene RRS1","SpotID 49169, MAA and Josa vs. Clari",1.09
same,"mean group, RRS1","SpotID 49169, pooled group mean",1.09
same,"group mean, gene YAF2","SpotID 49172, MAA and Josa vs. Clari",1.01
same,"group mean, gene NEDD8","SpotID 49177, MAA and Josa vs. Clari",0.97
same,"group mean, gene SRRM1","SpotID 49183, MAA and Josa vs. Clari",0.96
same,"group mean, gene FUCA1","SpotID 49197, MAA and Josa vs. Clari",0.98
same,"group mean, gene APOE","SpotID 49233, MAA and Josa vs. Clari",0.96
same,"mean group, APOE","SpotID 49233, pooled group mean",0.96
same,"mean group, TNFRSF10B","SpotID 49272, pooled group mean",0.97
same,"group mean, gene PPIB","SpotID 49314, MAA and Josa vs. Clari",1.04
same,"mean group, PPIB","SpotID 49314, pooled group mean",1.04
same,"group mean, gene YWHAH","SpotID 49318, MAA and Josa vs. Clari",1.08
same,"mean group, YWHAH","SpotID 49318, pooled group mean",1.08
same,"group mean, gene HNRPA3","SpotID 49347, MAA and Josa vs. Clari",1.01
same,"group mean, gene NCBP2","SpotID 49352, MAA and Josa vs. Clari",0.94
same,"group mean, gene TEB4","SpotID 49360, MAA and Josa vs. Clari",1.10
same,"mean group, TEB4","SpotID 49360, pooled group mean",1.10
same,"group mean, gene ABCE1","SpotID 49364, MAA and Josa vs. Clari",1.06
same,"group mean, gene EIF3S9","SpotID 49373, MAA and Josa vs. Clari",1.06
same,"mean group, SpotID 49374","SpotID 49374 (gene symbol not given), pooled group mean",0.97
same,"group mean, SpotID 49374 (gene symbol not given)","SpotID 49374, MAA and Josa vs. Clari",0.97
same,"group mean, gene SLC35A2","SpotID 49380, MAA and Josa vs. Clari",0.99
same,"group mean, gene PPP3CB","SpotID 49391, MAA and Josa vs. Clari",1.02
same,"group mean, gene TRRAP","SpotID 49435, MAA and Josa vs. Clari",1.07
same,"mean group, TRRAP","SpotID 49435, pooled group mean",1.07
same,"group mean, gene SRC","SpotID 49446, MAA and Josa vs. Clari",1.00
same,"mean group, SRC","SpotID 49446, pooled group mean",1.00
same,"group mean, gene LOC55871","SpotID 49481, MAA and Josa vs. Clari",0.90
same,"group mean, gene VTN","SpotID 49490, MAA and Josa vs. Clari",1.12
same,"mean group, VTN","SpotID 49490, pooled group mean",1.12
same,"group mean, gene MATN2","SpotID 49511, MAA and Josa vs. Clari",0.93
same,"group mean, gene GC20","SpotID 49512, MAA and Josa vs. Clari",1.01
same,"group mean, gene UBC","SpotID 49514, MAA and Josa vs. Clari",0.97
same,"mean group, UBC","SpotID 49514, pooled group mean",0.97
same,"group mean, gene AP1G2","SpotID 49524, MAA and Josa vs. Clari",0.74
same,"mean group, AP1G2","SpotID 49524, pooled group mean",0.74
same,"group mean, gene GNPI","SpotID 49546, MAA and Josa vs. Clari",1.05
same,"mean group, LOC54543","SpotID 49577, pooled group mean",0.88
same,"group mean, gene PSMC4","SpotID 49580, MAA and Josa vs. Clari",1.12
same,"mean group, CSTF3","SpotID 49606, pooled group mean",0.98
same,"group mean, gene POU4F1","SpotID 49608, MAA and Josa vs. Clari",0.97
same,"group mean, gene CLN2","SpotID 49618, MAA and Josa vs. Clari",1.03
same,"mean group, CLN2","SpotID 49618, pooled group mean",1.03
same,"group mean, gene FGF2","SpotID 49649, MAA and Josa vs. Clari",1.12
same,"group mean, gene MAP3K10","SpotID 49650, MAA and Josa vs. Clari",0.93
same,"mean group, BTN3A2","SpotID 49673, pooled group mean",0.92
same,"mean group, SERPINF1","SpotID 49679, pooled group mean",0.98
same,"group mean, gene GSK3B","SpotID 49688, MAA and Josa vs. Clari",1.05
same,"group mean, gene CAT","SpotID 49698, MAA and Josa vs. Clari",0.92
same,"group mean, gene PCYT2","SpotID 49705, MAA and Josa vs. Clari",0.92
same,"group mean, gene HNRPD","SpotID 49715, MAA and Josa vs. Clari",0.99
same,"group mean, gene GSK3B","SpotID 49735, MAA and Josa vs. Clari",1.02
same,"group mean, gene CHAF1B","SpotID 49737, MAA and Josa vs. Clari",0.99
same,"mean group, CHAF1B","SpotID 49737, pooled group mean",0.99
same,"group mean, gene USF2","SpotID 49744, MAA and Josa vs. Clari",0.93
same,"group mean, gene RPLP0","SpotID 49747, MAA and Josa vs. Clari",0.91
